In patent US9243025B2, “Compounds and pharmaceutical compositions for the treatment of viral infections” (Idenix Pharmaceuticals, LLC, priority 2011, dated 2016):
Where two headings read alike, the source gives them in different places.

Key:
Assay type in all cases: cell-based
[1] = test system: Huh-7 cells containing HCV Coni subgenomic replicon (GS4.1 cells); assay: HCV replicon assay; settings: GS4.1 cells, 72 hours incubation, NS4A expression by ELISA, read-out: HCV Replicon EC50
Description: (§1) Huh-7 cells containing HCV Coni subgenomic replicon (GS4.1 cells), (C. Seeger; Fox Chase University, Philadelphia, Pa., USA), are grown in Dulbecco's Modified Eagle Medium (DMEM) supplemented with 10% fetal bovine serum (FBS), 2 mM L-glutamine, 110 mg/L sodium pyruvate, 1× non-essential amino acids, 100 U/mL penicillin-streptomycin and 0.5 mg/mL G418 (Invitrogen). For dose-response testing, the cells are seeded in 96-well plates at 7.5×10^3 cells/well in a volume of 50 μL and incubated at 37° C./5% CO2. Three hours after plating, 50 μL of ten 2-fold serial dilutions of compounds (highest concentration, 75 μM) are added and cell cultures were incubated at 37° C./5% CO2 in the presence of 0.5% DMSO. Alternatively, compounds are tested at a single concentration of 15 μM. In all cases, Huh-7 cells lacking the HCV replicon served as negative control. The cells are incubated in the presence of compounds for 72 hours after which they were monitored for expression of the NS4A protein by enzyme-linked immunosorbent assay (ELISA). For this, the plates were then fixed for 1 min with 1:1 acetone:methanol, washed twice with phosphate-buffered saline (PBS), 0.1% Tween 20, blocked for 1 hour at room temperature with TNE buffer containing 10% FBS and then incubated for 2 h at 37° C. with the anti-NS4A mouse monoclonal antibody A-236 (ViroGen) diluted in the same buffer. After washing three times with PBS, 0.1% Tween 20, the cells are incubated 1 hour at 37° C. with anti-mouse immunoglobulin G-peroxidase conjugate in TNE, 10% FBS. After washing as described above, the reaction is developed with O-phenylenediamine (Zymed). The reaction is stopped after 30 minutes with […] and the absorbance is read at 492 nm using a Sunrise Tecan spectrophotometer. EC50 values are determined from the % inhibition versus concentration data using a sigmoidal non-linear regression analysis based on four parameters with Tecan Magellan software. When screening at a single concentration, the results are expressed as % inhibition at 15 μM. For cytotoxicity evaluation, GS4.1 cells are treated with compounds as described above and cellular viability was monitored using a Cell Titer 96 AQueous One Solution Cell Proliferation Assay (Promega). CC50 values are determined from the % cytotoxicity versus concentration data with Tecan Magellan software as described above.
Compounds presented in the table below were assayed according to the replicon assay described above.

[2] = test system: GS4.1 cells; assay: Cytotoxicity evaluation in GS4.1 cells (Cell Titer 96 AQueous One Solution Cell Proliferation Assay); settings: cellular viability, treated as in replicon assay, read-out: HCV Replicon CC50
Description: as §1

[3] = as above; settings: human, cellular viability, treated as in replicon assay, read-out: HCV Replicon CC50
Description: as §1

Structure (SMILES)	EC50 [1]	CC50 [2]	EC50 ([1]; Hepatitis C virus, Huh-7, 72 h)	CC50 at 72 h [3]
CCOC(=O)[C@@H](CC(C)C)NP(=O)(N[C@H](CC(C)C)C(=O)OCC)OC[C@H]1O[C@@H](n2cnc3c(OC)nc(N)nc32)C(C)(O)C1O (stereo partly shown) [Compound 66]	0.1 to 1 µM	≤ 75 µM		
CCOC(=O)CCNP(=O)(OCCSC(=O)C(C)(C)CO)OC[C@H]1O[C@@H](n2cnc3c(OC)nc(N)nc32)C(C)(O)C1O (stereo partly shown) [Compound 74]			0.1 to 1 µM	> 75 µM
COc1nc(N)nc2c1ncn2[C@@H]1O[C@H](COP(=O)(NC(Cc2ccccc2)C(=O)OC(C)C)NC(Cc2ccccc2)C(=O)OC(C)C)C(O)C1(C)O (stereo partly shown) [Compound 13]			0.1 to 1 µM	≤ 75 µM
CCOC(=O)[C@@H](NP(=O)(N[C@H](C(=O)OCC)C(C)C)OC[C@H]1O[C@@H](n2cnc3c(N4CCOCC4)nc(N)nc32)C(C)(O)C1O)C(C)C (stereo partly shown) [Compound 72]			0.1 to 1 µM	> 75 µM
CC(C)NP(=O)(OCCSC(=O)C(C)(C)CO)OC[C@H]1O[C@@H](n2cnc3c(NC4CC4)nc(N)nc32)C(C)(O)C1O (stereo partly shown) [Compound 75]			0.1 to 1 µM	> 75 µM
COc1nc(N)nc2c1ncn2[C@@H]1O[C@H](COP(=O)(NC(CC(C)C)C(=O)OC(C)C)NC(CC(C)C)C(=O)OC(C)C)C(O)C1(C)O (stereo in doubt) [Compound 12]			0.1 to 1 µM	> 75 µM
CC(C)NP(=O)(OCCSC(=O)C(C)(C)CO)OC[C@H]1O[C@@H](n2cnc3c(Cl)nc(N)nc32)C(C)(O)C1O (stereo partly shown) [Compound 79]			< 0.1 µM	≤ 75 µM
C#CC1(F)C(O)[C@@H](COP(=O)(N[C@@H](CC(C)C)C(=O)OCC)N[C@H](CC(C)C)C(=O)OCC)O[C@H]1n1cnc2c(NC3CC3)nc(N)nc21 (stereo partly shown) [Compound 81]			1 to 10 µM	≤ 75 µM
CCOC(=O)[C@H](CC(C)C)NP(=O)(N[C@@H](CC(C)C)C(=O)OCC)OC[C@H]1O[C@@H](n2ccc(=O)[nH]c2=O)C(C)(O)C1O (stereo partly shown) [Compound 80]			1 to 10 µM	> 75 µM
CCOC(=O)[C@H](CC(C)C)NP(=O)(N[C@@H](CC(C)C)C(=O)OCC)OC[C@H]1O[C@@H](n2cnc3c(N4CCCC4)nc(N)nc32)C(C)(O)C1O (stereo partly shown) [Compound 36]			< 0.1 µM	> 75 µM
CCOC(=O)[C@@H](NP(=O)(N[C@H](C(=O)OCC)C(C)CC)OC[C@H]1O[C@@H](n2cnc3c(N4CCCC4)nc(N)nc32)C(C)(O)C1O)C(C)CC (stereo partly shown) [Compound 67]			0.1 to 1 µM	> 75 µM
